From patent US20250032629A1, “NOVEL NUCLEOLIN-BINDING PEPTIDE AND USE THEREOF” (ANYGEN CO., LTD., priority 2020, published 2025) come the findings set out here.

Structures are written as SMILES.

Experiment [1] has as its system MDA-MB-231-luc cells. The experiment can be described thus: Tumor suppression in breast cancer xenograft model. The note with it: for average tumor volume: tail vein. In kind it is in vivo, NPG mice. The protocol:
FIG. 14B is a schematic representation of the experimental protocol. Here, anesthetized 6-week-old […] NPG mice were inoculated with a 1:1 mix of Matrigel and 1×10^6 MDA-MB-231-luc cells into the mammary fat pad. […] Nuclei were stained with DAPI (blue), and the scale bar is 50 μm. Bar graphs represent the mean±SD, and statistical analyses were performed by one-way ANOVA with Dunnett's multiple comparison. *, **, and *** indicate P<0.05, P<0.01, and P<0.001, respectively. […]
All animal experiments were performed in accordance with IACUC guidelines (GIST-2019-040). For tumorigenesis experiments, anesthetized 6-week-old female NOD-scid Il2rg^−/− mice (NPG™, VITALSTAR) were inoculated in the mammary fat pad with 1×10^6 MDA-MB-231-luc cells in a volume of 100 μl (n=5˜6 for each group). After tumor cell inoculation, when the tumor volume reached approximately 100 mm^3, the mice were randomly divided into the following five groups: (i) control, (ii) low-dose paclitaxel (2 mg/kg), (iii) high-dose paclitaxel (10 mg/kg), (iv) AGM-330 (16.68 mg/kg or 8.34 mg/kg), and (v) AGM-330-PTX (19.05 mg/kg or 10.71 mg/kg). The tumor size was measured twice a week, and the tumor volume was calculated with the following formula:
For the bioluminescent imaging experiment, D-luciferin (150 mg/kg; PerkinElmer) was intraperitoneally injected into each mouse, and an IVIS 100 imaging system (Xenogen, Corporation, Alameda, CA) was used for bioluminescent monitoring. Mice were anesthetized with vaporized isoflurane (BK Pharm, Ilsan, Korea) and placed in an imaging chamber. After 10 min, each animal was imaged with an exposure time of 1 min. All bioluminescent image data were provided by Living Image software (version 4.5.2, PerkinElmer). Photons detected from tumors were converted to average radiance values (photon/see/cm^2/sr), which are quantitative data obtained from a region of intensity (ROI) and include the photons emitted by bioluminescent cells from an assigned rectangular area over the whole body of each mouse.
Following in vitro proliferation analysis on cancer lines, the present inventors investigated whether AGM-330t-PTX could be a potential therapeutic agent in vivo. The present inventors inoculated MDA-MB-231-luc cells into the mammary fat pad of NPG mice. After the subcutaneous tumors grew to 100 mm^3, comparative efficacy studies were performed by dividing the animals into five groups (n=5/group) treated with vehicle (PBS), AGM-330t (16.68 mg/kg), PTX (2 or 10 mg/kg, respectively) or AGM-330t-PTX (19.05 mg/kg) twice a week by tail vein injection (FIG. 14B). Tumor growth was monitored by measuring volumes twice a week with a caliber rule over the course of 3 weeks.
The present inventors also performed histological staining of the excised tumors, and an independent pathologist evaluated the slides.

Experiment [2] concerns MCF-10A cells. In words: Cell proliferation assay (WST-1), AGM-330-PTX. In kind it is cell-based. The note with it: Homo sapiens, 48 h. In general terms: Tetrazolium dyes change colour on reduction, which living cells bring about.

For orientation: IC50 means the concentration that inhibits the measured activity by half. Lower therefore signals higher potency. As to `CC(=O)O[C@H]1C(=O)[C@@]2(C)[C@H]([C@H](OC(=O)c3ccccc3)[C@]3(O)C[C@H](OC(=O)[C@H](O)[C@@H](NC(=O)c4ccccc4)c4ccccc4)C(C)=C1C3(C)C)[C@]1(OC(C)=O)CO[C@@H]1C[C@@H]2O` [PTX, Paclitaxel, reference compound], the average tumor volume in experiment [1] (2 mg/kg twice a week, n=5) stood at 1671±199 mm^3; in experiment [1] (10 mg/kg twice a week, day 21, n=5), 988±78 mm^3. Moreover, the “final average tumor weight” value was determined as 2.1 ± 0.4 g in experiment [1] (2 mg/kg, n=5) and 1.5 ± 0.1 g in experiment [1] (10 mg/kg, n=5). Inhibition in experiment [2] was half-maximal at 22.1 µM (IC50).
